Test results taken from ChEMBL document CHEMBL4602648, “The bioisosteric modification of pyrazinamide derivatives led to potent antitubercular agents: Synthesis via click approach and molecular docking of pyrazine-1,2,3-triazoles” (Bioorg Med Chem Lett, 2020).
In brackets after ≈: the same amount, converted by molar mass. Activity calls are given as the source filed them. The rule behind the calls is not given here.

Columns and labels:
[1] = biological target: T1, Enoyl-[acyl-carrier-protein] reductase [NADH] (Mycobacterium tuberculosis) (UniProt P9WGR1); test: Inhibition of Mycobacterium tuberculosis H37Rv ATCC 27294 InhA assessed as bacterial growth inhibition after 5 days by microplate alamar blue assay
T1 sequence (whole entry): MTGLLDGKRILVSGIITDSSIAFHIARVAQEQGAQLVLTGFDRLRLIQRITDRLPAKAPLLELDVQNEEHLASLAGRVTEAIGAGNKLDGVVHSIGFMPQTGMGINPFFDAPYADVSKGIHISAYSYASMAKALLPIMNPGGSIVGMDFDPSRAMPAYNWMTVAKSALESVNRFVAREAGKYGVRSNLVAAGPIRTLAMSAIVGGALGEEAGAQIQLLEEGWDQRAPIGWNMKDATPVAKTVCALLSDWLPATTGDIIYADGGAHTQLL

[2] = tested on: Escherichia coli; test: Antibacterial activity against Escherichia coli by dilution assay; type: functional
[3] = tested on: Staphylococcus aureus; test: Antibacterial activity against Staphylococcus aureus by dilution assay; type: functional
[4] = tested on: Pseudomonas aeruginosa; test: Antibacterial activity against Pseudomonas aeruginosa by dilution assay; type: functional
[5] = tested on: Vero; test: Cytotoxicity against African green monkey Vero cells assessed as reduction in cell viability incubated for 48 hrs by MTT assay; type: cell-based; conditions: Chlorocebus sabaeus
[6] = Selectivity index, ratio of IC50 for cytotoxicity against African green monkey Vero cells to MIC for antitubercular activity against Mycobacterium tuberculosis H37Rv ATCC 27294; type: toxicity, cell-based; conditions: read-out: Selectivity Index
[7] = Cytotoxicity against African green monkey Vero cells assessed as growth inhibition at 62.5 ug/ml after 48 hrs by MTT assay relative to control; type: cell-based; conditions: chlorocebus sabaeus, read-out: GI

SMILES	MIC [1] [µM]	MIC [2]	MIC [3] [µg/mL]	MIC [4]	IC50 [5] [µg/mL]	selectivity ratio [6]	inhibition at 48 h, 62.5 ug/ml [7] [%]
O=C(OCc1cn(Cc2ccccc2F)nn1)c1ccccc1	80.3 (≈ 25 µg/mL)	25 µg/mL (≈ 80.3 µM)	25 (≈ 80.3 µM)	50 µg/mL (≈ 161 µM)			
N#Cc1ccc(Cn2cc(CNC(=O)c3ccccc3)nn2)cc1	39.4 (≈ 12.5 µg/mL)	25 µg/mL (≈ 78.8 µM)	25 (≈ 78.8 µM)	25 µg/mL (≈ 78.8 µM)			
O=[N+]([O-])c1ccc(Cn2cc(CSc3nnc(-c4cccnc4)o3)nn2)cc1	63.2 (≈ 25 µg/mL)	50 µg/mL (≈ 126 µM)	25 (≈ 63.2 µM)	25 µg/mL (≈ 63.2 µM)			
Fc1ccc(Cn2cc(CSc3nnc(-c4cccnc4)o3)nn2)cc1	> 100	inactive	50 (≈ 136 µM)	inactive			
N#Cc1ccc(Cn2cc(CSc3nnc(-c4cnccn4)o3)nn2)cc1	16.6 (≈ 6.25 µg/mL)	50 µg/mL (≈ 133 µM)	25 (≈ 66.4 µM)	50 µg/mL (≈ 133 µM)			
O=C(NCc1cn(Cc2ccc(C(F)(F)F)cc2)nn1)c1cccnc1	4.31 (≈ 1.56 µg/mL)	6.25 µg/mL (≈ 17.3 µM)	12.5 (≈ 34.6 µM)	12.5 µg/mL (≈ 34.6 µM)	336 (≈ 931 µM)	216	7.42
O=C(NCc1cn(Cc2ccc(C(F)(F)F)cc2)nn1)c1ccccc1	> 100	inactive	50 (≈ 139 µM)	25 µg/mL (≈ 69.4 µM)			
O=C(NCc1cn(Cc2ccc([N+](=O)[O-])cc2)nn1)c1ccccc1	> 100	50 µg/mL (≈ 148 µM)	50 (≈ 148 µM)	50 µg/mL (≈ 148 µM)			
N#Cc1ccc(Cn2cc(CNC(=O)c3cccnc3)nn2)cc1	4.9 (≈ 1.56 µg/mL)	6.25 µg/mL (≈ 19.6 µM)	6.25 (≈ 19.6 µM)	6.25 µg/mL (≈ 19.6 µM)	399 (≈ 1250 µM)	256	17.7
O=C(NCc1cn(Cc2ccc(F)cc2)nn1)c1cnccn1	4.99 (≈ 1.56 µg/mL)	12.5 µg/mL (≈ 40 µM)	6.25 (≈ 20 µM)	12.5 µg/mL (≈ 40 µM)	496 (≈ 1590 µM)	318	5.9
Cc1ccc(Cn2cc(CSc3nnc(-c4cccnc4)o3)nn2)cc1	34.3 (≈ 12.5 µg/mL)	252 µg/mL (≈ 691 µM)	12.5 (≈ 34.3 µM)	225 µg/mL (≈ 617 µM)			
O=C(O)c1cn(C2CC2)c2cc(N3CCNCC3)c(F)cc2c1=O [CIPROFLOXACIN]	9.41 (≈ 3.12 µg/mL)		2 (≈ 6.04 µM)	4 µg/mL (≈ 12.1 µM)			
CN[C@@H]1[C@H](O[C@H]2[C@H](O[C@H]3[C@H](O)[C@@H](O)[C@H](N=C(N)N)[C@@H](O)[C@@H]3N=C(N)N)O[C@@H](C)[C@]2(O)C=O)O[C@@H](CO)[C@H](O)[C@H]1O	11.7 (≈ 6.83 µg/mL)						
N#Cc1ccc(Cn2cc(CNC(=O)c3cnccn3)nn2)cc1	4.88 (≈ 1.56 µg/mL)	6.25 µg/mL (≈ 19.6 µM)	6.25 (≈ 19.6 µM)	6.25 µg/mL (≈ 19.6 µM)	533 (≈ 1670 µM)	342	12.3
O=[N+]([O-])c1ccc(Cn2cc(CSc3nnc(-c4cnccn4)o3)nn2)cc1	15.8 (≈ 6.25 µg/mL)	inactive	12.5 (≈ 31.5 µM)	25 µg/mL (≈ 63.1 µM)			
O=C(OCc1cn(Cc2ccc(F)cc2)nn1)c1cnccn1	9.95 (≈ 3.12 µg/mL)	12.5 µg/mL (≈ 39.9 µM)	12.5 (≈ 39.9 µM)	25 µg/mL (≈ 79.8 µM)			
Fc1ccc(Cn2cc(CSc3nnc(-c4cnccn4)o3)nn2)cc1	33.8 (≈ 12.5 µg/mL)	25 µg/mL (≈ 67.7 µM)	25 (≈ 67.7 µM)	50 µg/mL (≈ 135 µM)			
O=C(OCc1cn(Cc2ccccc2F)nn1)c1cccnc1	80 (≈ 25 µg/mL)	25 µg/mL (≈ 80.1 µM)	50 (≈ 160 µM)	50 µg/mL (≈ 160 µM)			
O=C(NCc1cn(Cc2ccc([N+](=O)[O-])cc2)nn1)c1cccnc1	4.61 (≈ 1.56 µg/mL)	12.5 µg/mL (≈ 36.9 µM)	6.25 (≈ 18.5 µM)	6.25 µg/mL (≈ 18.5 µM)	465 (≈ 1380 µM)	298	7.08
O=C(OCc1cn(Cc2ccc(C(F)(F)F)cc2)nn1)c1cccnc1	34.5 (≈ 12.5 µg/mL)	25 µg/mL (≈ 69 µM)	25 (≈ 69 µM)	50 µg/mL (≈ 138 µM)			
N#Cc1ccc(Cn2cc(COC(=O)c3cnccn3)nn2)cc1	9.74 (≈ 3.12 µg/mL)	50 µg/mL (≈ 156 µM)	12.5 (≈ 39 µM)	25 µg/mL (≈ 78 µM)			
O=C(NCc1cn(Cc2ccc([N+](=O)[O-])cc2)nn1)c1cnccn1	4.59 (≈ 1.56 µg/mL)	6.25 µg/mL (≈ 18.4 µM)	3.12 (≈ 9.19 µM)	6.25 µg/mL (≈ 18.4 µM)	403 (≈ 1190 µM)	258	20.5
O=C(NCc1cn(Cc2ccccc2F)nn1)c1cccnc1	10 (≈ 3.12 µg/mL)	25 µg/mL (≈ 80.3 µM)	6.25 (≈ 20.1 µM)	25 µg/mL (≈ 80.3 µM)			

SMILES	MIC [1] [µM]	MIC [2]	MIC [3] [µg/mL]	MIC [4]	IC50 [5] [µg/mL]	selectivity ratio [6]	inhibition at 48 h, 62.5 ug/ml [7] [%]
N#Cc1ccc(Cn2cc(COC(=O)c3cccnc3)nn2)cc1	78.3 (≈ 25 µg/mL)	50 µg/mL (≈ 157 µM)	25 (≈ 78.3 µM)	50 µg/mL (≈ 157 µM)			
O=C(OCc1cn(Cc2ccc([N+](=O)[O-])cc2)nn1)c1cnccn1	18.4 (≈ 6.25 µg/mL)	25 µg/mL (≈ 73.5 µM)	25 (≈ 73.5 µM)	50 µg/mL (≈ 147 µM)			
Fc1ccccc1Cn1cc(CSc2nnc(-c3cccnc3)o2)nn1	> 100	50 µg/mL (≈ 136 µM)	50 (≈ 136 µM)	25 µg/mL (≈ 67.9 µM)			
FC(F)(F)c1ccc(Cn2cc(CSc3nnc(-c4cccnc4)o3)nn2)cc1	> 100	50 µg/mL (≈ 120 µM)	25 (≈ 59.8 µM)	50 µg/mL (≈ 120 µM)			
O=C(OCc1cn(Cc2ccc(F)cc2)nn1)c1cccnc1	> 100	inactive	50 (≈ 160 µM)	50 µg/mL (≈ 160 µM)			
O=C(OCc1cn(Cc2ccccc2F)nn1)c1cnccn1	19.9 (≈ 6.23 µg/mL)	25 µg/mL (≈ 79.8 µM)	25 (≈ 79.8 µM)	50 µg/mL (≈ 160 µM)			
O=C(OCc1cn(Cc2ccc(C(F)(F)F)cc2)nn1)c1cnccn1	8.59 (≈ 3.12 µg/mL)	25 µg/mL (≈ 68.8 µM)	25 (≈ 68.8 µM)	25 µg/mL (≈ 68.8 µM)			
FC(F)(F)c1ccc(Cn2cc(CSc3nnc(-c4cnccn4)o3)nn2)cc1	59.6 (≈ 25 µg/mL)	25 µg/mL (≈ 59.6 µM)	25 (≈ 59.6 µM)	25 µg/mL (≈ 59.6 µM)			
O=C(OCc1cn(Cc2ccc(C(F)(F)F)cc2)nn1)c1ccccc1	> 100	inactive	50 (≈ 138 µM)	inactive			
O=C(OCc1cn(Cc2ccc([N+](=O)[O-])cc2)nn1)c1ccccc1	> 100	inactive	50 (≈ 148 µM)	inactive			
O=C(NCc1cn(Cc2ccccc2F)nn1)c1ccccc1	> 100	inactive	50 (≈ 161 µM)	50 µg/mL (≈ 161 µM)			
O=C(NCc1cn(Cc2ccc(F)cc2)nn1)c1cccnc1	80.3 (≈ 25 µg/mL)	12.5 µg/mL (≈ 40.2 µM)	12.5 (≈ 40.2 µM)	25 µg/mL (≈ 80.3 µM)			
O=C(NCc1cn(Cc2ccc(F)cc2)nn1)c1ccccc1	> 100	inactive	50 (≈ 161 µM)	inactive			
O=C(NCc1cn(Cc2ccccc2F)nn1)c1cnccn1	9.99 (≈ 3.12 µg/mL)	12.5 µg/mL (≈ 40 µM)	6.25 (≈ 20 µM)	12.5 µg/mL (≈ 40 µM)			
O=C(NCc1cn(Cc2ccc(C(F)(F)F)cc2)nn1)c1cnccn1	4.31 (≈ 1.56 µg/mL)	12.5 µg/mL (≈ 34.5 µM)	12.5 (≈ 34.5 µM)	25 µg/mL (≈ 69 µM)	342 (≈ 944 µM)	219	8.4
Fc1ccccc1Cn1cc(CSc2nnc(-c3cnccn3)o2)nn1	> 100	inactive	50 (≈ 135 µM)	inactive			
N#Cc1ccc(Cn2cc(COC(=O)c3ccccc3)nn2)cc1	39.3 (≈ 12.5 µg/mL)	25 µg/mL (≈ 78.5 µM)	25 (≈ 78.5 µM)	50 µg/mL (≈ 157 µM)			
N#Cc1ccc(Cn2cc(CSc3nnc(-c4cccnc4)o3)nn2)cc1	66.6 (≈ 25 µg/mL)	50 µg/mL (≈ 133 µM)	50 (≈ 133 µM)	50 µg/mL (≈ 133 µM)			
NC(=O)c1cnccn1	25.3 (≈ 3.12 µg/mL)						
Cc1ccc(Cn2cc(CSc3nnc(-c4cnccn4)o3)nn2)cc1	8.53 (≈ 3.12 µg/mL)	12.5 µg/mL (≈ 34.2 µM)	12.5 (≈ 34.2 µM)	25 µg/mL (≈ 68.4 µM)			
O=C(OCc1cn(Cc2ccc(F)cc2)nn1)c1ccccc1	80.3 (≈ 25 µg/mL)	50 µg/mL (≈ 161 µM)	25 (≈ 80.3 µM)	25 µg/mL (≈ 80.3 µM)			
O=C(OCc1cn(Cc2ccc([N+](=O)[O-])cc2)nn1)c1cccnc1	36.8 (≈ 12.5 µg/mL)	25 µg/mL (≈ 73.7 µM)	25 (≈ 73.7 µM)	25 µg/mL (≈ 73.7 µM)			
